Measured values reported in US11478515B2, “Compositions comprising probiotic and prebiotic components and mineral salts, with lactoferrin” (GlaxoSmithKline Consumer Healthcare S.R.L., priority 2009, dated 2022).
Where a SMILES comes first, the peptide text is derived from it. Bridges are numbered along the chain shown (N, C = ends). [ ]: non-standard residue; d: D form. The star is where a group is joined. Ileψ(thiazoline)Cys = CC[C@H](C)[C@H](N)C1=N[C@H](C(=O)*)CS1; dOrn = NCCC[C@@H](N)C(=O)O

What follows are compounds tested on Bifidobacterium longum R175 (assay: antibiotic resistance profile). Conditions: dose of each agent.
Format: cell-based

Compound | outcome (antibiotic resistance profile)
CC1(C)S[C@@H]2[C@H](NC(=O)[C@H](N)c3ccccc3)C(=O)N2[C@H]1C(=O)O [Ampicillin] | susceptible
CC[C@H](C)[C@H](N)C1=N[C@H](C(=O)N[C@@H](CC(C)C)C(=O)N[C@H](CCC(=O)O)C(=O)N[C@H](C(=O)N[C@H]2CCCCNC(=O)[C@H](CC(N)=O)NC(=O)[C@@H](CC(=O)O)NC(=O)[C@H](Cc3cnc[nH]3)NC(=O)[C@@H](Cc3ccccc3)NC(=O)[C@H]([C@@H](C)CC)NC(=O)[C@@H](CCCN)NC2=O)[C@@H](C)CC)CS1 [Bacitracin] ({Ileψ(thiazoline)Cys}-L[dE]IK[dOrn]I[dF]H[dD]N; lactam 4-C) | susceptible
CO[C@H]1/C=C/O[C@@]2(C)Oc3c(C)c(O)c4c(O)c(c(/C=N/N5CCN(C)CC5)c(O)c4c3C2=O)NC(=O)/C(C)=C\C=C\[C@H](C)[C@H](O)[C@@H](C)[C@@H](O)[C@@H](C)[C@H](OC(C)=O)[C@@H]1C [Rifampin] | susceptible
CN[C@H](CC(C)C)C(=O)N[C@H]1C(=O)N[C@@H](CC(N)=O)C(=O)N[C@H]2C(=O)N[C@H]3C(=O)N[C@H](C(=O)N[C@H](C(=O)O)c4cc(O)cc(O)c4-c4cc3ccc4O)[C@H](O)c3ccc(c(Cl)c3)Oc3cc2cc(c3O[C@@H]2O[C@H](CO)[C@@H](O)[C@H](O)[C@H]2O[C@H]2C[C@](C)(N)[C@H](O)[C@H](C)O2)Oc2ccc(cc2Cl)[C@H]1O [Vancomycin] | susceptible
CC(=O)OCC1=C(C(=O)O)N2C(=O)[C@@H](NC(=O)Cc3cccs3)[C@H]2SC1 [cephalothin] | susceptible
O=C(N[C@H](CO)[C@H](O)c1ccc([N+](=O)[O-])cc1)C(Cl)Cl [chloramphenicol] | susceptible
CC[C@H]1OC(=O)[C@H](C)[C@@H](O[C@H]2C[C@@](C)(OC)[C@@H](O)[C@H](C)O2)[C@H](C)[C@@H](O[C@@H]2O[C@H](C)C[C@H](N(C)C)[C@H]2O)[C@](C)(O)C[C@@H](C)C(=O)[C@H](C)[C@@H](O)[C@]1(C)O [erythromycin] | susceptible
CCC[C@@H]1C[C@@H](C(=O)N[C@@H]([C@H]2O[C@H](SC)[C@H](O)[C@@H](O)[C@H]2O)[C@@H](C)O)N(C)C1 [lincomycin] | intermediate
CO[C@@H]1[C@@H](OC(N)=O)[C@@H](O)[C@H](Oc2ccc3c(O)c(NC(=O)c4ccc(O)c(CC=C(C)C)c4)c(=O)oc3c2C)OC1(C)C [novobiocin] | susceptible
CC1(C)S[C@@H]2[C@H](NC(=O)Cc3ccccc3)C(=O)N2[C@H]1C(=O)O [penicillin G] | susceptible
[H]/N=C(/N)N[C@H]1[C@H](O)[C@@H](O)[C@H](O[C@@H]2O[C@@H](C)[C@](O)(C=O)[C@H]2O[C@@H]2O[C@@H](CO)[C@H](O)[C@@H](O)[C@@H]2NC)[C@@H](N/C(N)=N\[H])[C@@H]1O [streptomycin] | resistant
Cc1noc(NS(=O)(=O)c2ccc(N)cc2)c1C [sulfisoxazole] | resistant
Neomycin | resistant
Polymyxin B | resistant
gentamycin | resistant
